Data from patent publication US20210299079A1, “MONOMETHYL FUMARATE-CARRIER CONJUGATES AND METHODS OF THEIR USE” (Flagship Pioneering Innovations V, Inc., priority 2018, published 2021).

Key:
Assay type in all cases: cell-based
IL-8 = assay: Neutrophil Chemokine Production Assay: IL-8; details: human neutrophils, 12 h
Method in brief: (§1)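 Neutrophils were isolated from human blood by Histopaque-1077 separation and RBC lysis, then plated at 2.0×10^5 cells/well in RPMI complete. Cells were stimulated with LPS (10 μL of a 2 μg/mL solution) for 12 h at 37 °C. Supernatant chemokines were measured by Luminex multiplex, averaging three data points from two donors.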

MIP-1β = assay: Neutrophil Chemokine Production Assay: MIP-1β; details: human neutrophils, 12 h
Method in brief: as §1

TNFα = assay: Cytokine Release from Human PBMCs: TNFα; details: LPS, 24 hours, Concentration 100 μM
Procedure: Human donor blood (8 mL) was collected in sodium citrate CPT tubes and centrifuged at 1,600×g for 20 minutes at room temperature. Buffy coat containing PBMCs was collected and transferred to a 50 mL conical tube containing 30 mL of RPMI-1640 medium at room temperature (supplemented with penicillin-streptomycin). PBMCs samples were centrifuged at 400×g for 10 minutes at 10° C. The pelleted PBMCs were washed twice in 10 ml of RPMI-1640 medium (supplemented with penicillin-streptomycin), then resuspended in RPMI-1640 medium (supplemented with penicillin-streptomycin, fetal bovine serum, and L-Glutamine). PBMCs were filtered through a 70 micron mesh to remove any cellular debris. […] PBMCs in a 96-well plate were rested for 30 minutes in a 37° C., 5% CO2 incubator, then subsequently treated with 10 μI of indicated compound. After 2 hours 10 μL of LPS (0111:64) 1 mg/mL was added to test wells. After 24 hours of incubation at 37° C., 5% CO2, 100 μL of cell supernatant was collected and transferred to a 96-well plate (non-tissue treated, flat bottom). The plate was centrifuged at 350×g for 5 minutes at room temperature, and then the clear supernatant transferred to a new 96-well plate (non-tissue treated, flat bottom). The remaining cells were tested for viability using CellTiter-Glo® Luminescent Cell Viability Assay (Promega). The supernatant was analyzed for TNFα, IL-6 and IL-1β (kit […] Systems), using Luminex Immunoassay Technology (MAGPIX System).

MIP-1α = assay: Neutrophil Chemokine Production Assay: MIP-1α; details: human neutrophils, 12 h
Method in brief: as §1

Caco-2 colonocytes = assay: Human Caco-2 Barrier Integrity Assay, Study 1; details: Caco-2, + cytokines (TNFα, IFNγ, IL-1β), 48 hours
Procedure: Caco-2 colonocytes were maintained at 37° C. and 5% CO2 in Dulbecco's Modified Eagle Medium (DMEM) and supplemented with 10% FBS, 1% NEAA, 1% penicillin-streptomycin. At 70-80% confluency, cells were trypsinized and seeded in 0.4 cm^2 transwell collagen I coated membranes with supplemented DMEM in both apical and basolateral compartments. […] After 48 hours, TEER readings were taken again and viability was measured by CellTiter 96® AQueous One Solution Cell Proliferation Assay (Promega).

CCC(=O)O [propionate]
% IL-8 (Vehicle + LPS = 100%) (IL-8; Conc. 500.0 μM): − (− = >90% Vehicle)
% IL-8 (Vehicle + LPS = 100%) (IL-8; Conc. 1000.0 μM): ++ (++ = <70% Vehicle)
% IL-8 (Vehicle + LPS = 100%) (IL-8; Conc. 3000.0 μM): +++ (+++ = <50% Vehicle)
% MIP-1β (DMSO + LPS = 100%) (MIP-1β; Conc. 500.0 μM): +++ (+++ = <50% Vehicle)
% MIP-1β (DMSO + LPS = 100%) (MIP-1β; Conc. 1000.0 μM): +++ (+++ = <50% Vehicle)
% MIP-1β (DMSO + LPS = 100%) (MIP-1β; Conc. 3000.0 μM): +++ (+++ = <50% Vehicle)
TNFα % of DMSO control (TNFα): + ((+) 50% > <90% DMSO)
% MIP-1α (Vehicle + LPS = 100%) (MIP-1α; Conc. 500.0 μM): +++ (+++ = <50% Vehicle)
% MIP-1α (Vehicle + LPS = 100%) (MIP-1α; Conc. 1000.0 μM): +++ (+++ = <50% Vehicle)
% MIP-1α (Vehicle + LPS = 100%) (MIP-1α; Conc. 3000.0 μM): +++ (+++ = <50% Vehicle)
% Change in TEER from DMSO (Caco-2 colonocytes; 1 mM): + (125% > <150%: +)
% Change in TEER from DMSO (Caco-2 colonocytes; 3 mM): ++ (150% > <200%: ++)
